Measured values taken from BindingDB's records for doi:10.1016/j.bmcl.2004.10.092 (F. Hoffmann-La Roche, 2005).

Columns and labels:
Assay in all cases: Serine Protease Inhibition Assay
[1] = target: Prothrombin (Homo sapiens, UniProt P00734)
Method: (§1) The enzyme reactions were initiated by the addition of substrate, and the color developed from the release of p-nitroanilide from each chromogenic substrate was monitored continuously for 5 min at 405 nm on a microtiter plate reader. […] The apparent Ki values were then calculated according to the Cheng-Prusoff equation: Ki = IC50/1 + [S]/Km.

[2] = target: Coagulation factor X (Homo sapiens, UniProt P00742)
Coagulation factor X, sequence (P00742 41-179 limits assumed): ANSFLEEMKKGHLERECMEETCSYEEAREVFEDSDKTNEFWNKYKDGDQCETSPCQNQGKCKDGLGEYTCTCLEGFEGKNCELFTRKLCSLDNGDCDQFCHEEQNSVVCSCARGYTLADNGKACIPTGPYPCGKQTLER
Coagulation factor X, sequence (P00742 235-488 limits assumed): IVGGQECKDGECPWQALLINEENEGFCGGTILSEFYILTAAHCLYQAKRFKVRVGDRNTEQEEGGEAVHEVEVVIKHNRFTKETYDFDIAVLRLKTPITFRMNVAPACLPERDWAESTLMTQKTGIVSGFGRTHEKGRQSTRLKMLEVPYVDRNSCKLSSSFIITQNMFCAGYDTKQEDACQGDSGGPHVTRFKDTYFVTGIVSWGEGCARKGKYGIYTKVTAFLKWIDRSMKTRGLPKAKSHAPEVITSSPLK
Method: as §1

[3] = target: T1, Serine protease 1 (Bos taurus, UniProt P00760)
T1 sequence (P00760 whole entry): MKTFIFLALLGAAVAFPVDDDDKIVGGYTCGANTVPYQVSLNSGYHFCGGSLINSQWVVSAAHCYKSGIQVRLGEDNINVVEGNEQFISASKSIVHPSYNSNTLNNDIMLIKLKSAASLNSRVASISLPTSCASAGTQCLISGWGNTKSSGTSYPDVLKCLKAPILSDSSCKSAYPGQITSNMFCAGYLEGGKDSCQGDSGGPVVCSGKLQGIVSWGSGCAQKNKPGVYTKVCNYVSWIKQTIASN
Method: as §1

[4] = target: T2, Coagulation factor VII (Homo sapiens, UniProt P08709); conditions: pH 7.8; 22 °C
T2 sequence (P08709 whole entry): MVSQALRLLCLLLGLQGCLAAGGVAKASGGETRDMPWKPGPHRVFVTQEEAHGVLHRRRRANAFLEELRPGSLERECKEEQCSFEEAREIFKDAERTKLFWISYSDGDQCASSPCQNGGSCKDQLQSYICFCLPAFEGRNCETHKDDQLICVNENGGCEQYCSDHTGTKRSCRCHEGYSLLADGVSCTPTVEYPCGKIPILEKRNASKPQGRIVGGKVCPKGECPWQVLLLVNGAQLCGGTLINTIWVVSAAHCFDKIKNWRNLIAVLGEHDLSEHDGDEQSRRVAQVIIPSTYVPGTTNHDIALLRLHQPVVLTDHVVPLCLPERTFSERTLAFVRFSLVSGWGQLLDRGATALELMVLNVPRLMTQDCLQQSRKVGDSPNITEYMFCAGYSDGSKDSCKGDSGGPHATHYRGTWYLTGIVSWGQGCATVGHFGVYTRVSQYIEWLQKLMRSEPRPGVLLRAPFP
Method: as §1

Question: `COc1cc(C(Nc2ccc(C(=N)N)cc2)C(=O)N[C@H](C(=O)O)c2ccccc2)c(S(=O)(=O)c2ccccc2)cc1OCc1ccccc1` (some centres not stated) [phenylglycine amide compound 10] was tested. Which Ki [1] did it give?
Answer: 0.54 µM

Question: What about the Ki [2] of the same compound?
Answer: 12.4 µM

Question: What about the Ki [3] of the same compound?
Answer: 0.05 µM

Question: How did the Ki [4] turn out when `COc1cc(C(Nc2ccc(C(=N)N)cc2)C(=O)N[C@H](C(=O)O)c2ccccc2)c(C(=O)Cc2ccccc2)cc1OCc1ccccc1` (stereo partly drawn) [(2S)-2-{2-[4-(benzyloxy)-5-methoxy-2-(2-phenylacetyl)phenyl]-2-[(4-carbamimidoylphenyl)amino]acetamido}-2-phenylacetic acid] was run?
Answer: 0.007 µM

Question: And the Ki [1]?
Answer: 6.4 µM

Question: What about the Ki [2] of the same compound?
Answer: 19 µM

Question: And the Ki [3]?
Answer: 0.08 µM
